{"source": "patent US7431953B2", "about": "“Skin preparation for external use containing Purpuricenus temminckii frass as the active ingredient” (Nihon University, priority 2002, dated 2008)"}
{"tested_on": "rat-derived basophils (RBL-2H3)", "experiment": "β-Hexosaminidase release-inhibition assay", "format": "cell-based", "conditions": "antigen (DNP-BSA)-stimulated RBL-2H3; FIG. 7, FIG. 8", "experimental": "The assay principle of the β-hexosaminidase release assay is as follows:\nβ-hexosaminidase is a glycolytic enzyme, and is one of the lysosome enzymes occurring abundantly in granules of mast cells.\nIn the β-hexosaminidase release assay, p-nitrophenyl phosphate is separated due to the presence of this enzyme. The separated p-nitrophenyl phosphate is determined by a photometric method (405 nm), and the result is set as the β-hexosaminidase enzyme activity.\nThe effect of inhibiting β-hexosaminidase release was evaluated using the anti-allergic effect test that uses as an index β-hexosaminidase released from the rat-derived basophils (RBL-2H3).\nRBL-2H3 cells were cultured (5% carbon dioxide, 37° C.) in an Eagle minimum essential medium containing 10% fetal calf serum (FCS), 100 units/mL penicillin and 100 μg/mL streptomycin. Then, the cells were plated to a 24-well flat-bottomed microplate for cell culture at 2.5×10^5 cells/well ([…] medium/well). By culturing for 24 hours (5% carbon dioxide, 37° C.), the cells were sensitized. The sensitized cells were then washed once in 500 μl of PBF, and 160 μl of the siraganian buffer containing 5.6 mM glucose, 1 mM calcium chloride and 0.1% BSA was added. A sample solution at each concentration and 20 μl of the test substance solution (DMSO: 0.1%) were added, and ten minutes later the antigen (DNP-BSA: 10 μg/mL) was added and incubated for 10 minutes to stimulate the cells. After stopping the reaction by cooling with ice for 10 minutes, 50 μl of the supernatant was transferred to a 96-well flat-bottomed microtiter plate, to which 100 μl of the enzyme reaction was added and mixed. After determining absorbance of the mixture by a microplate reader, the release ratio was determined by the following equation (measurement wavelength: 405 nm, reference wavelength: 655 nm). β-hexosaminidase release ratio (%)=[amount of β-hexosaminidase released by stimulation/amount of total intracellular β-hexosaminidase]×100\nTotal intracellular β-hexosaminidase was determined using the supernatant obtained by centrifuging the cells disrupted by an ultrasonic disruption instrument."}
{"smiles": "CC[C@H](CC[C@@H](C)[C@H]1CCC2[C@@H]3CCC4=CC(=O)CC[C@]4(C)C3CC[C@@]21C)C(C)C", "note": "(stereo partly shown) [stigmast-4-en-3-one]", "Effect of inhibiting β-hexosaminidase release": "roughly confirmed"}
{"smiles": "CC[C@H](/C=C/[C@@H](C)[C@H]1CCC2[C@@H]3CCC4=CC(=O)CC[C@]4(C)C3CC[C@@]21C)C(C)C", "note": "(stereo partly shown) [stigmasta-4,22-dien-3-one]", "Effect of inhibiting β-hexosaminidase release": "roughly confirmed"}
{"smiles": "CC[C@H](CC[C@@H](C)[C@H]1CC[C@H]2[C@@H]3CC(=O)C4=CC(=O)CC[C@]4(C)[C@H]3CC[C@]12C)C(C)C", "note": "[stigmast-4-ene-3,6-dione]", "Effect of inhibiting β-hexosaminidase release": "roughly confirmed"}
{"smiles": "c1ccc2c(c1)[I+]c1ccccc1-2", "note": "[DPI, reference compound]", "Effect of inhibiting β-hexosaminidase release": "inhibited, in a concentration-dependent manner"}
